What follows are compounds tested against T1, sarkosyl insoluble (SI) α-synuclein (human α-SYN A53T) (Homo sapiens, UniProt P37840, A53T) (assay: MJFF-14-6-4-2 conformation specific ELISA of sarkosyl insoluble α-synuclein after compound treatment). Details: 1 μM compound; protein remaining relative to DMSO control; PFF induced A53T α-synuclein overexpressing HEK293 cells; read-out: Protein Degradation at 1 μM.
T1 construct: expressed in transfected cells
Type: cell-based
Method: Targeted degradation of sarkosyl insoluble (SI) α-synuclein via exemplary bifunctional compounds was assessed by MJFF-14-6-4-2 conformation specific ELISA following treatment of PFF induced A53T α-synuclein overexpressing HEK293 cells with 1 μM exemplary compound compared to DMSO vehicle control. Degradation activity of the exemplary compounds of Table 2 is expressed as % DMSO control. […] However, the effect of bifunctional targeting degraders, shown in FIG. 5, required the intact E3 ligase binding domain.
Trex293 (doxycycline inducible) cells stably expressing human α-SYN A53T (monoclonal) were plated in poly-d-lysine coated T-75 tissue culture flasks (4.5×10e6 cells/flask) in DMEM with 10% tet-free FBS, 10 μg/ml blasticidin, and 400 μg/ml zeocin. After an overnight incubation, the cells were induced to express α-SYN by treatment with 1 μg/ml doxycycline (Dox) and exemplary bifunctional compound. After a 24 hour dox induction, the medium on the cells was changed to Opti-MEM followed by treatment with α-SYN pre-formed fibrils** (PFFs)(5 μg/flask) pre-complexed with Lipofectamine 2000 transfection reagent for 4 hours. After PFF treatment, the medium was changed back to DMEM with the supplements described above and exemplary bifunctional compound for 48 hours.
Cell pellets were harvested from each flask using 0.25% trypsin followed by spinning at 500×g for 5 minutes. Each pellet was resuspended in 1 ml cold buffer H [Buffer H-10 mM Tris, 1 mM EGTA, 0.8M NaCl, 10% sucrose, pH7.4 containing 1× protease and phosphatase inhibitors] containing protease and phosphatase inhibitors. The resuspended pellets were incubated on ice for 20 minutes followed by centrifugation at 27,200×g for 20 minutes at 4° C. The supernatants were adjusted to 1% sarkosyl (Sigma) and 1% 2-mercaptoethanol followed by incubation for 1 hour at 37° C. on an orbital shaker set to 400 rpm. The samples were then spun at 150,000×g for 35 minutes at room temperature. The supernatant was removed and saved as the soluble fraction and the insoluble pellet was resuspended in 25 μl tris-buffered saline (TBS). Protein concentrations were determined by NanoDrop, and normalized protein concentrations were analyzed by WES capillary electrophoresis as well as an α-SYN oligomer ELISA.
Recombinant human α-SYN was purchased from Proteos. 1 mg aliquots were supplied at 10 mg/ml in 10 mM Tris, 50 mM NaCl, pH7.6. The aliquot was thawed on ice followed by centrifugation at 4° C. for 10 minutes at 12,000×g to pellet any insoluble material. The supernatant was removed and quantitated on a NanoDrop (A280) using Beer's Law (ε=5960 M-1 cm-1). The concentration was adjusted to 5 mg/ml in PBS followed by vortexing for 3 seconds to mix contents. The mixture was incubated in an orbital shaker set to 37° C. at 1,000 rpm for 7 days followed by aliquoting into individual use vials. Prior to addition to cells, an aliquot was thawed at room temperature, then diluted to 1 mg/ml with phosphate-buffered saline (PBS) followed by sonication for 1 minute with a probe sonicator (output 1; 90% duty cycle) in a chem hood.
Coming Costar high bind black well plates were coated with MJFR 14-6-4-2 (Abcam) at 1 μg/ml for 1 hour at 37° C. followed by washing with 1×TBS+0.1% tween-20 (TBS-T) then blocking with 3% bovine serum albumin (BSA) in TBS. After re-washing, samples were added after dilution in diluent (1% BSA/TBS-T). Non-sonicated PFF was used to generate a standard curve. The plates were incubated with sample overnight at 4° C. with shaking. The following day alkaline phosphatase (AP) conjugated MJFR 14-6-4-2 was added to the plate without washing followed by incubation at room temperature for 1 hour with shaking or rocking. The plates were then re-washed and substrate (CDP star alkaline phosphatase detection reagent) was added followed by a 30 minute incubation at room temperature. The plate was read on a luminescence plate reader. The counts were log transformed and read off the standard curve. […]

| Compound | remaining activity at 1 µM [%] |
| --- | --- |
| CN(C)c1ccc(-c2nc3ccc(O[C@H]4C[C@H](OC5CCN(CCCCCOc6ccc7c(c6)C(=O)N(C6CCC(=O)NC6=O)C7=O)CC5)C4)cc3s2)cc1 (stereo partly drawn) [Exemplary Compound 27, 2-(2,6-dioxopiperidin-3-yl)-5-[(5-[4-[(1r,3r)-3-([2-[4-(dimethylamino)phenyl]-1,3-benzothiazol-6-yl]oxy)cyclobutoxy]piperidin-1-yl]pentyl)oxy]-2,3-dihydro-1H-isoindole-1,3-dione] | > 120 |
| CN(CCCN1c2ccccc2Sc2ccccc21)CCOCCOCCOCCOc1ccc2c(c1)C(=O)N(C1CCC(=O)NC1=O)C2=O (stereo not drawn) [Exemplary Compound 16, 2-(2,6-dioxo-3-piperidyl)-5-[2-[2-[2-[2-[methyl(3-phenothiazin-10-ylpropyl)amino]ethoxy]ethoxy]ethoxy]ethoxy]isoindoline-1,3-dione] | 70 to 120 |
| Cc1ncsc1-c1ccc([C@H](C)NC(=O)[C@@H]2C[C@@H](O)CN2C(=O)[C@@H](NC(=O)COCCOCCOc2ccc3c(c2)Sc2cc([N+](=O)[O-])ccc2N3)C(C)(C)C)cc1 [Exemplary Compound 8, (2S,4R)-1-[(2S)-3,3-dimethyl-2-[[2-[2-[2-[(7-nitro-10H-phenothiazin-3-yl)oxy]ethoxy]ethoxy]acetyl]amino]butanoyl]-4-hydroxy-N-[(1S)-1-[4-(4-methylthiazol-5-yl)phenyl]ethyl]pyrrolidine-2-carboxamide] | 70 to 120 |
| Cc1ncsc1-c1ccc([C@H](C)NC(=O)[C@@H]2C[C@@H](O)CN2C(=O)[C@@H](NC(=O)COCCOCCOCCOCCOCCOc2ccc3c(c2)Sc2cc([N+](=O)[O-])ccc2N3)C(C)(C)C)cc1 [Exemplary Compound 11, (2S,4R)-1-((S)-2-(tert-butyl)-20-((7-nitro-10H-phenothiazin-3-yl)oxy)-4-oxo-6,9,12,15,18-pentaoxa-3-azaicosanoyl)-4-hydroxy-N-((S)-1-(4-(4-methylthiazol-5-yl)phenyl)ethyl)pyrrolidine-2-carboxamide] | > 120 |
| O=C1CCC(N2C(=O)c3ccc(OCCCCCN4CCC(O[C@H]5C[C@H](Oc6ccc7c(c6)Sc6cc([N+](=O)[O-])ccc6N7)C5)CC4)cc3C2=O)C(=O)N1 (stereo partly drawn) [Exemplary Compound 19, 2-(2,6-dioxo-3-piperidyl)-5-[5-[4-[3-[(7-nitro-10H-phenothiazin-3-yl)oxy]cyclobutoxy]-1-piperidyl]pentoxy]isoindoline-1,3-dione] | 35 to 70 |
| Cc1ncsc1-c1ccc([C@H](C)NC(=O)[C@@H]2C[C@@H](O)CN2C(=O)[C@@H](NC(=O)CN2CCN(CCN3CCC(O[C@H]4C[C@H](Oc5ccc6c(c5)Sc5cc([N+](=O)[O-])ccc5N6)C4)CC3)CC2)C(C)(C)C)cc1 [Exemplary Compound 34, (2S,4R)-1-((S)-3,3-dimethyl-2-(2-(4-(2-(4-((1r,3r)-3-((7-nitro-10H-phenothiazin-3-yl)oxy)cyclobutoxy)piperidin-1-yl)ethyl)piperazin-1-yl)acetamido)butanoyl)-4-hydroxy-N-((S)-1-(4-(4-methylthiazol-5-yl)phenyl)ethyl)pyrrolidine-2-carboxamide] | < 35 |
| O=C1CCC(N2C(=O)c3ccc(OCCCCCN4CCC(O[C@H]5C[C@H](Oc6ccc(CN7C(=O)C(=CC=Cc8ccc([N+](=O)[O-])cc8)c8ccccc87)cc6)C5)CC4)cc3C2=O)C(=O)N1 (stereo partly drawn) [Exemplary Compound 31, 2-(2,6-dioxopiperidin-3-yl)-5-((5-(4-((1r,3r)-3-(4-(((Z)-3-((E)-3-(4-nitrophenyl)allylidene)-2-oxoindolin-1-yl)methyl)phenoxy)cyclobutoxy)piperidin-1-yl)pentyl)oxy)isoindoline-1,3-dione] | 70 to 120 |
| CN(C)c1ccc(-c2nc3ccc(O[C@H]4C[C@H](OCCCN5CCN(c6ccc7c(c6)C(=O)N(C6CCC(=O)NC6=O)C7=O)CC5)C4)cc3s2)cc1 (stereo partly drawn) [Exemplary Compound 24, 2-(2,6-dioxopiperidin-3-yl)-5-(4-[3-[(1r,3r)-3-([2-[4-(dimethylamino)phenyl]-1,3-benzothiazol-6-yl]oxy)cyclobutoxy]propyl]piperazin-1-yl)-2,3-dihydro-1H-isoindole-1,3-dione] | > 120 |
| COc1ccc2nc(-c3ccc(N4CC(OC5CCN(CCN6CCN(c7ccc8c(c7)C(=O)N(C7CCC(=O)NC7=O)C8=O)CC6)CC5)C4)cc3)sc2c1 (stereo not drawn) [Exemplary Compound 26, 2-(2,6-dioxopiperidin-3-yl)-5-(4-[2-[4-([1-[4-(6-methoxy-1,3-benzothiazol-2-yl)phenyl]azetidin-3-yl]oxy)piperidin-1-yl]ethyl]piperazin-1-yl)-2,3-dihydro-1H-isoindole-1,3-dione] | 35 to 70 |
| CNc1ccc(-c2nc3ccc(OCCOCCOCCOCCOCCOCC(=O)N[C@H](C(=O)N4C[C@H](O)C[C@H]4C(=O)N[C@@H](C)c4ccc(-c5scnc5C)cc4)C(C)(C)C)cc3s2)cc1 [Exemplary Compound 4, (2S,4R)-1-((S)-2-(tert-butyl)-20-((2-(4-(methylamino)phenyl)benzo[d]thiazol-6-yl)oxy)-4-oxo-6,9,12,15,18-pentaoxa-3-azaicosanoyl)-4-hydroxy-N-((S)-1-(4-(4-methylthiazol-5-yl)phenyl)ethyl)pyrrolidine-2-carboxamide] | < 35 |
| CN(CCCN1c2ccccc2Sc2ccccc21)CCOCCOCCOc1ccc2c(c1)C(=O)N(C1CCC(=O)NC1=O)C2=O (stereo not drawn) [Exemplary Compound 15, 5-(2-(2-(2-((3-(10H-phenothiazin-10-yl)propyl)(methyl)amino)ethoxy)ethoxy)ethoxy)-2-(2,6-dioxopiperidin-3-yl)isoindoline-1,3-dione] | 35 to 70 |
| O=C1CCC(N2C(=O)c3ccc(N4CCN(CCN5CCC(O[C@H]6C[C@H](Oc7ccc8c(c7)Sc7cc([N+](=O)[O-])ccc7N8)C6)CC5)CC4)cc3C2=O)C(=O)N1 (stereo partly drawn) [Exemplary Compound 18, 2-(2,6-dioxo-3-piperidyl)-5-[4-[2-[4-[3-[(7-nitro-10H-phenothiazin-3-yl)oxy]cyclobutoxy]-1-piperidyl]ethyl]piperazin-1-yl]isoindoline-1,3-dione] | 70 to 120 |
| CNc1ccc(-c2nc3ccc(OCCOCCOCC(=O)N[C@H](C(=O)N4C[C@H](O)C[C@H]4C(=O)N[C@@H](C)c4ccc(-c5scnc5C)cc4)C(C)(C)C)cc3s2)cc1 [Exemplary Compound 1, (2S,4R)-1-[(2S)-3,3-dimethyl-2-[[2-[2-[2-[[2-[4-(methylamino)phenyl]-1,3-benzothiazol-6-yl]oxy]ethoxy]ethoxy]acetyl]amino]butanoyl]-4-hydroxy-N-[(1S)-1-[4-(4-methylthiazol-5-yl)phenyl]ethyl]pyrrolidine-2-carboxamide] | < 35 |
| COc1cc(/C=C/c2ccc3cc(OCCOCCOCCOCCOc4ccc5c(c4)C(=O)N(C4CCC(=O)NC4=O)C5=O)ccc3n2)ccn1 (stereo not drawn) [Exemplary Compound 36, 2-(2,6-dioxo-3-piperidyl)-5-[2-[2-[2-[2-[[2-[(E)-2-(2-methoxy-4-pyridyl)vinyl]-6-quinolyl]oxy]ethoxy]ethoxy]ethoxy]ethoxy]isoindoline-1,3-dione] | > 120 |
| COc1cc(/C=C/c2ccc3cc(OCCOCCOCCOc4ccc5c(c4)C(=O)N(C4CCC(=O)NC4=O)C5=O)ccc3n2)ccn1 (stereo not drawn) [Exemplary Compound 47, (E)-2-(2,6-dioxopiperidin-3-yl)-5-(2-(2-(2-((2-(2-(2-methoxypyridin-4-yl)vinyl)quinolin-6-yl)oxy)ethoxy)ethoxy)ethoxy)isoindoline-1,3-dione] | 70 to 120 |
